The values that follow come from BindingDB's records for patent US11286268 (eFFECTOR Therapeutics, Inc., 2022).

The IC50 is the midpoint of a concentration-inhibition curve.

This assay deals with Eukaryotic translation initiation factor 4E (Homo sapiens, UniProt P06730). As to the kind of experiment: Fluorescence Polarization Assay. The procedure: eIF4E protein was pre-incubated with EDA-m7GDP-ATTO-550 in FPB at 2xconcentrations for 5 minutes prior to the addition of compounds. Compounds (100x) were prepared using 3-fold serial dilutions in 100% DMSO, and subsequently diluted 1:50 in FPB to produce 2x stocks. 50 ul of 2x eIF4E/EDA-m7GDP-ATTO-550 were transferred to the wells of a 96-well half-area black flat bottom polystyrene plate. 50 ul of 2x test compound were added, and binding reactions were allowed to equilibrate for 30 minutes at room temperature while protected from light. The fluorescent polarization signal was detected using a Victor 2 multi-label counter (Perkin Elmer) and the concentration necessary to achieve inhibition of eIF4E/EDA-m7GDP-ATTO-550 binding by 50% (IC50) was calculated using data from an 8-point compound dilution series.
Sequence of Eukaryotic translation initiation factor 4E (P06730 whole entry): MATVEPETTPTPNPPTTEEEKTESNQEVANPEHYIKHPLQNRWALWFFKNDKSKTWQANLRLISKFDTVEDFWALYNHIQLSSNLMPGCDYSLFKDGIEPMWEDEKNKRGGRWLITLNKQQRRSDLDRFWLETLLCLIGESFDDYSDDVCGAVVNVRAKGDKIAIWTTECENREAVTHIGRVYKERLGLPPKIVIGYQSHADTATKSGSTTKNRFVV
A general note: Polarisation of emitted light reports the rotation of a fluorescent probe.

For the compound `CCN(c1ncc2nc(C)n(CC#Cc3ccc(Cl)cc3-c3ccnc4c(C(=O)NS(=O)(=O)CF)csc34)c(=O)c2c1C#N)C1CCN(C2COC2)CC1` [US11286268, Compound 1743], the IC50 is 6.87 nM.
In the case of `CCN(c1ncc2nc(C)n(CC#Cc3ccc(Cl)cc3-c3ccnc4c(C(=O)NS(=O)(=O)c5ccccn5)csc34)c(=O)c2c1C#N)C1CCN(CC(F)(F)C(F)F)CC1` [US11286268, Compound 1609] it was 4.88 nM; in that of `Cc1nc2cc(C(F)(F)F)cc(C#N)c2c(=O)n1CCOc1ccc(Cl)cc1-c1cc(C(C)C)nc2c(C(=O)O)csc12` [US11286268, Compound 1902], 84.2 nM.
In the case of `Cc1nc2cnc(N3CCN(C4CC4)C(C(F)F)C3)c(C#N)c2c(=O)n1CCOc1ccc(Cl)cc1-c1ccnc2c(C(=O)O)csc12` (stereo not drawn) [US11286268, Compound 1439] it was 12.8 nM; in that of `Cc1nc2cnc(C(=O)C3CCN(CC(F)F)CC3)c(C#N)c2c(=O)n1CCOc1ccc(Cl)cc1-c1ccnc2c(C(=O)O)csc12` [US11286268, Compound 1440], 69 nM.
Turning to `Cc1nc2cnc(N(C)CC3CCN(CC(F)F)CC3)c(C#N)c2c(=O)n1CC#Cc1ccc(Cl)cc1-c1ccnc2c(C(=O)O)csc12` [US11286268, Compound 1541], half-maximal inhibition (IC50) required 10.6 nM.
In the case of `N#Cc1ccc(OCCn2cnc3cnc(C#N)cc3c2=O)c(-c2cccc(C(=O)O)c2)c1` [US11286268, Compound 2026] it was 656 nM.
As to `Cc1nc2cnc(N(C)C3CCN(CC(C)(F)F)CC3)c(C#N)c2c(=O)n1CC#Cc1ccc(Cl)cc1-c1ccnc2c(C(=O)NS(=O)(=O)C(F)(F)F)csc12` [US11286268, Compound 1603], the IC50 came out at 2.12 nM. This IC50 is about 310-fold lower than that of the compound before.
With `Cc1nc2cnc(N(C)C3CCN(CC(F)F)CC3)c(C#N)c2c(=O)n1CCOc1ccc(Cl)cc1-c1ccnc2c(C(=O)O)csc12` [US11286268, Compound 1318] the figure was 34.4 nM.
In the case of `Cc1nc2cnc(N3CC4(C3)CN(C3CCC3)C4)c(C#N)c2c(=O)n1CCOc1ccc(Cl)cc1-c1ccnc2c(C(=O)O)csc12` [US11286268, Compound 1437] it was 37.3 nM; in that of `Cc1nc2cnc(NC3CC[N+](C)(CC(F)F)CC3)c(C#N)c2c(=O)n1CC#Cc1ccc(Cl)cc1-c1ccnc2c(C(=O)O)csc12` (stereo not drawn) [US11286268, Compound 1663], 14.1 nM.
In the case of `Cc1nc2cnc(N3CC4(C3)CN(C3(C)CC(F)(F)C3)C4)c(C#N)c2c(=O)n1CCOc1ccc(Cl)cc1-c1ccnc2c(C(=O)O)csc12` [US11286268, Compound 1435] it was 26.4 nM.
`CCN(c1ncc2nc(C)n(CC#Cc3ccc(Cl)cc3-c3ccnc4c(C(=O)NS(=O)(=O)C5COC5)csc34)c(=O)c2c1C#N)C1CCN(CC(F)(F)C(F)F)CC1` [US11286268, Compound 1608]: the IC50 amounted to 6.59 nM.
